Assay results taken from PubChem BioAssay (NCI).
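Step 1: Grow cells in 96-well plates. Step 2: Expose to compound for 48 hours at 5 concentrations. Step 3: Interpolate endpoints linearly; if unreached, use highest concentration. The concentration for full growth arrest is given as TGI.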

Columns and labels:
Assay in all cases: inhibition of tumour cell growth, NCI panel, 48 h
PC-3 prostate = test system: PC-3 prostate
SF-268 CNS = test system: SF-268 CNS
MDA-N = test system: MDA-N
UACC-62 melanoma = test system: UACC-62 melanoma
NCI/ADR-RES ovarian = test system: NCI/ADR-RES ovarian
UO-31 renal = test system: UO-31 renal
BT-549 breast = test system: BT-549 breast
SK-MEL-5 melanoma = test system: SK-MEL-5 melanoma
OVCAR-4 ovarian = test system: OVCAR-4 ovarian
T-47D breast = test system: T-47D breast
M14 melanoma = test system: M14 melanoma
ACHN renal = test system: ACHN renal
SR leukemia = test system: SR leukemia
SK-MEL-2 melanoma = test system: SK-MEL-2 melanoma
HCT-116 colon = test system: HCT-116 colon
786-0 renal = test system: 786-0 renal
OVCAR-5 ovarian = test system: OVCAR-5 ovarian
HL-60(TB) leukemia = test system: HL-60(TB) leukemia
SNB-19 CNS = test system: SNB-19 CNS
U251 CNS = test system: U251 CNS
MDA-MB-231 breast = test system: MDA-MB-231 breast
CCRF-CEM leukemia = test system: CCRF-CEM leukemia
MDA-MB-435 = test system: MDA-MB-435
UACC-257 melanoma = test system: UACC-257 melanoma
MOLT-4 leukemia = test system: MOLT-4 leukemia
HOP-62 NSCLC = test system: HOP-62 NSCLC
COLO 205 colon = test system: COLO 205 colon
RXF 393 renal = test system: RXF 393 renal
SN12C renal = test system: SN12C renal
HS 578T breast = test system: HS 578T breast
IGROV1 ovarian = test system: IGROV1 ovarian
SF-295 CNS = test system: SF-295 CNS
LOX IMVI melanoma = test system: LOX IMVI melanoma
HCC-2998 colon = test system: HCC-2998 colon
MALME-3M melanoma = test system: MALME-3M melanoma
MCF7 breast = test system: MCF7 breast
A549 NSCLC = test system: A549 NSCLC
NCI-H23 lung = test system: NCI-H23 lung
CAKI-1 renal = test system: CAKI-1 renal
OVCAR-8 ovarian = test system: OVCAR-8 ovarian
OVCAR-3 ovarian = test system: OVCAR-3 ovarian
SF-539 CNS = test system: SF-539 CNS
KM12 colon = test system: KM12 colon
HT29 colon = test system: HT29 colon
TK-10 renal = test system: TK-10 renal
SK-MEL-28 melanoma = test system: SK-MEL-28 melanoma
NCI-H460 lung = test system: NCI-H460 lung
NCI-H226 lung = test system: NCI-H226 lung
K-562 leukemia = test system: K-562 leukemia
SK-OV-3 ovarian = test system: SK-OV-3 ovarian
DU-145 prostate = test system: DU-145 prostate
SW-620 colon = test system: SW-620 colon
NCI-H522 lung = test system: NCI-H522 lung
HCT-15 colon = test system: HCT-15 colon
SNB-75 CNS = test system: SNB-75 CNS
EKVX NSCLC = test system: EKVX NSCLC
HOP-92 NSCLC = test system: HOP-92 NSCLC
RPMI-8226 leukemia = test system: RPMI-8226 leukemia
A498 renal = test system: A498 renal

Measured: TGI

C/C=C/C(O)P1(=O)N(Cc2ccccc2)[C@@H]2CCCC[C@H]2N1Cc1ccccc1 (some centres not stated)
not listed: HOP-92 NSCLC | RPMI-8226 leukemia | A498 renal
> 25 µM: all other assays above

OCC1OC(n2cnc3c(Cl)nc(Nc4ccccc4)nc32)CC1O (configuration not stated)
32.1 µM: ACHN renal
90.1 µM: HS 578T breast
6.87 µM: HOP-92 NSCLC
10.6 µM: NCI-H522 lung
36.4 µM: A549 NSCLC
60.8 µM: HCT-15 colon
8.15 µM: EKVX NSCLC
44.7 µM: HCC-2998 colon
36.5 µM: LOX IMVI melanoma
33.7 µM: UO-31 renal
3.4 µM: CAKI-1 renal
66.8 µM: IGROV1 ovarian
37.8 µM: MALME-3M melanoma
not listed: SR leukemia | HL-60(TB) leukemia | SK-MEL-28 melanoma
> 100 µM: all other assays above
